Where two headings read alike, the source gives them in different places.
How the values were obtained:
NCI-H23 = test: NCI-60 cell line screen (SRB), NCI-H23; assay type: cell-based, human
Procedure: (§1) Drug sensitivity data are provided as GI50s (concentrations required to inhibit growth by 50%). The first row of the text file identifies cell lines, separated by tabs. Subsequent rows contain compound number, compound name, and GI50 for each cell line, each separated by a tab. […] For a typical screening experiment, cells are inoculated into 96 well microtiter plates in 100 μL at plating densities ranging from 5,000 to 40,000 cells/well depending on the doubling time of individual cell lines. After cell inoculation, the microtiter plates are incubated at 37° C., 5% CO2, 95% air and 100% relative humidity for 24 h prior to addition of experimental drugs. After 24 h, two plates of each cell line are fixed in situ with TCA, to represent a measurement of the cell population for each cell line at the time of drug addition (Tz). Experimental drugs are solubilized in dimethyl sulfoxide at 400-fold the desired final maximum test concentration and stored frozen prior to use. At the time of drug addition, an aliquot of frozen concentrate is thawed and diluted to twice the desired final maximum test concentration with complete medium containing 50 μg/ml gentamicin. Additional four, 10-fold or one-half log serial dilutions are made to provide a total of five drug concentrations plus control. Aliquots of 100 μl of these different drug dilutions are added to the appropriate microtiter wells already containing 100 μl of medium, resulting in the required final drug concentrations. Following drug addition, the plates are incubated for an additional 48 h at 37° C., 5% CO2, 95% air, and 100% relative humidity. For adherent cells, the assay is terminated by the addition of cold TCA. Cells are fixed in situ by the gentle addition of 50 μl of cold 50% (w/v) TCA (final concentration, 10% TCA) and incubated for 60 minutes at 4° C. The supernatant is discarded, and the plates are washed five times with tap water and air dried. Sulforhodamine B (SRB) solution (100 μl) at 0.4% (w/v) in 1% acetic acid is added to each well, and plates are incubated for 10 minutes at room temperature. After staining, unbound dye is removed by washing five times with 1% acetic acid and the plates are air dried. Bound stain is subsequently solubilized with 10 mM trizma base, and the absorbance is read on an automated plate reader at a wavelength of 515 nm. For suspension cells, the methodology is the same except that the assay is terminated by fixing settled cells at the bottom of the wells by gently adding 50 μl of 80% TCA (final concentration, 16% TCA). Using the seven absorbance measurements [time zero, (Tz), control growth, (C), and test growth in the presence of drug at the five concentration levels (Ti)], the percentage growth is calculated at each of the drug concentrations levels. […]

SK-MEL-5 = test: NCI-60 cell line screen (SRB), SK-MEL-5; assay type: cell-based, human
Procedure: as §1

[1] = tested on: Prostate Cancer cell lines; test: NCI-60 cell line screen, Prostate Cancer panel average; assay type: cell-based, human; settings: read-out: GI50 Average
Procedure: as §1

HL-60(TB) = test: NCI-60 cell line screen (SRB), HL-60(TB); assay type: cell-based, human
Procedure: as §1

SW-620 = test: NCI-60 cell line screen (SRB), SW-620; assay type: cell-based, human
Procedure: as §1

A549/ATCC = test: NCI-60 cell line screen (SRB), A549/ATCC; assay type: cell-based, human
Procedure: as §1

OVCAR-5 = test: NCI-60 cell line screen (SRB), OVCAR-5; assay type: cell-based, human
Procedure: as §1

MCF-7 = test: NCI-60 cell line screen (SRB), MCF-7; assay type: cell-based, human
Procedure: as §1

NCI-H460 = test: NCI-60 cell line screen (SRB), NCI-H460; assay type: cell-based, human
Procedure: as §1

Melanoma cell lines = test: NCI-60 cell line screen, Melanoma panel average; assay type: cell-based, human; settings: read-out: GI50 Average
Procedure: as §1

NCI-H322M = test: NCI-60 cell line screen (SRB), NCI-H322M; assay type: cell-based, human
Procedure: as §1

[2] = tested on: Ovarian Cancer cell lines; test: NCI-60 cell line screen, Ovarian Cancer panel average; assay type: cell-based, human; settings: read-out: GI50 Average
Procedure: as §1

HCT-116 = test: NCI-60 cell line screen (SRB), HCT-116; assay type: cell-based, human
Procedure: as §1

MDA-MB-468 = test: NCI-60 cell line screen (SRB), MDA-MB-468; assay type: cell-based, human
Procedure: as §1

CNS Cancer cell lines = test: NCI-60 cell line screen, CNS Cancer panel average; assay type: cell-based, human; settings: read-out: GI50 Average
Procedure: as §1

SNB-19 = test: NCI-60 cell line screen (SRB), SNB-19; assay type: cell-based, human
Procedure: as §1

BT-549 = test: NCI-60 cell line screen (SRB), BT-549; assay type: cell-based, human
Procedure: as §1

CCRF-CEM = test: NCI-60 cell line screen (SRB), CCRF-CEM; assay type: cell-based, human
Procedure: as §1

SNB-75 = test: NCI-60 cell line screen (SRB), SNB-75; assay type: cell-based; settings: Homo sapiens, SNB-75, 48 h
Procedure: as §1, with “temperature.” for “temperature. After staining, unbound dye is removed by washing five times with 1% acetic acid and the plates are air dried. Bound stain is subsequently solubilized with 10 mM trizma base, and the absorbance is read on an automated plate reader at a wavelength of 515 nm. For suspension cells, the methodology is the same except that the assay is terminated by fixing settled cells at the bottom of the wells by gently adding 50 μl of 80% TCA (final concentration, 16% TCA). Using the seven absorbance measurements [time zero, (Tz), control growth, (C), and test growth in the presence of drug at the five concentration levels (Ti)], the percentage growth is calculated at each of the drug concentrations levels.”

HCC-2998 = test: NCI-60 cell line screen (SRB), HCC-2998; assay type: cell-based, human
Procedure: as §1

PC-3 = test: NCI-60 cell line screen (SRB), PC-3; assay type: cell-based, human
Procedure: as §1

TK-10 = test: NCI-60 cell line screen (SRB), TK-10; assay type: cell-based, human
Procedure: as §1

HOP-62 = test: NCI-60 cell line screen (SRB), HOP-62; assay type: cell-based, human
Procedure: as §1

Breast Cancer cell lines = test: NCI-60 cell line screen, Breast Cancer panel average; assay type: cell-based, human; settings: read-out: GI50 Average
Procedure: as §1

CCCC[Si](C)(C)COc1ccc(C(=O)N[C@@H](Cc2ccc(-c3ccccc3)cc2)C(=O)NC2CC(C)(C)NC(C)(C)C2)cc1 [GH1504, N^α-{4-[(butyldimethylsilyl)methoxy]-benzoyl}-N-(2,2,6,6-tetramethylpiperidin-4-yl)-(4-phenyl-L-phenylalaninamide)]
GI50 (NCI-H23; Homo sapiens, NCI-H23, 48 h): 1760 nM
GI50 (SK-MEL-5; Homo sapiens, SK-MEL-5, 48 h): 234 nM
GI50 ([1]; Homo sapiens): 834 nM
GI50 (HL-60(TB); Homo sapiens, HL-60, 48 h): 1220 nM
GI50 (SW-620; Homo sapiens, SW-620, 48 h): 316 nM
GI50 (A549/ATCC; Homo sapiens, A549, 48 h): 326 nM
GI50 (OVCAR-5; Homo sapiens, OVCAR-5, 48 h): 1810 nM
GI50 (MCF-7; Homo sapiens, MCF7, 48 h): 332 nM
GI50 (NCI-H460; Homo sapiens, NCI-H460, 48 h): 348 nM
GI50 (Melanoma cell lines; Homo sapiens): 886 nM
GI50 (NCI-H322M; Homo sapiens, 48 h): 1710 nM
GI50 ([2]; Homo sapiens): 1150 nM
GI50 (HCT-116; Homo sapiens, HCT-116, 48 h): 218 nM
GI50 (MDA-MB-468; Homo sapiens, MDA-MB-468, 48 h): 198 nM
GI50 (CNS Cancer cell lines; Homo sapiens): 1170 nM
GI50 (SNB-19; Homo sapiens, SNB-19, 48 h): 1550 nM
GI50 (BT-549; Homo sapiens, BT-549, 48 h): 1960 nM
GI50 (CCRF-CEM; Homo sapiens, 48 h): 1500 nM
GI50 (SNB-75): 1630 nM
GI50 (HCC-2998; Homo sapiens, HCC 2998, 48 h): 1110 nM
GI50 (PC-3; Homo sapiens, PC-3, 48 h): 1300 nM
GI50 (TK-10; Homo sapiens, TK-10, 48 h): 1110 nM
GI50 (HOP-62; Homo sapiens, HOP-62, 48 h): 1360 nM
GI50 (Breast Cancer cell lines; Homo sapiens): 1170 nM

CCOP(=O)(OCC)C(NC(=O)[C@H](Cc1ccc(-c2ccccc2)cc1)NC(=O)c1ccc(OCCC[Si](C)(C)C)cc1)P(=O)(OCC)OCC [GH1505, N^α-{4-[3-(trimethylsilyl)propoxy]-benzoyl}-N-[bis(dietoxyphosphoryl)methyl]-(4-phenyl-L-phenylalaninamide)]
GI50 (NCI-H23; Non-Small Cell Lung Cancer, NCI-H23, 48 h drug incubation, read-out: GI50): 3050 nM
GI50 (SK-MEL-5; Melanoma, SK-MEL-5, 48 h drug incubation, read-out: GI50): 1580 nM
GI50 ([1]; average over Prostate Cancer panel): 2020 nM
GI50 (HL-60(TB); Leukemia, HL-60(TB), 48 h drug incubation, read-out: GI50): 2940 nM
GI50 (SW-620; Colon Cancer, SW-620, 48 h drug incubation, read-out: GI50): 2190 nM
GI50 (A549/ATCC; Non-Small Cell Lung Cancer, A549/ATCC, 48 h drug incubation, read-out: GI50): 2840 nM
GI50 (OVCAR-5; Ovarian Cancer, OVCAR-5, 48 h drug incubation, read-out: GI50): 1710 nM
GI50 (MCF-7; Breast Cancer, MCF-7, 48 h drug incubation, read-out: GI50): 1880 nM
GI50 (NCI-H460; Non-Small Cell Lung Cancer, NCI-H460, 48 h drug incubation, read-out: GI50): 1970 nM
GI50 (Melanoma cell lines; average over Melanoma panel): 1920 nM
GI50 (NCI-H322M; Non-Small Cell Lung Cancer, 48 h drug incubation, read-out: GI50): 5110 nM
GI50 ([2]; average over Ovarian Cancer panel): 2600 nM
GI50 (HCT-116; Colon Cancer, HCT-116, 48 h drug incubation, read-out: GI50): 1930 nM
GI50 (MDA-MB-468; Breast Cancer, MDA-MB-468, 48 h drug incubation, read-out: GI50): 1720 nM
GI50 (CNS Cancer cell lines; average over CNS Cancer panel): 2010 nM
GI50 (SNB-19; CNS Cancer, SNB-19, 48 h drug incubation, read-out: GI50): 2060 nM
GI50 (BT-549; Breast Cancer, BT-549, 48 h drug incubation, read-out: GI50): 2090 nM
GI50 (CCRF-CEM; Leukemia, 48 h drug incubation, read-out: GI50): 2780 nM
GI50 (HCC-2998; Colon Cancer, HCC-2998, 48 h drug incubation, read-out: GI50): 2020 nM
GI50 (PC-3; Prostate Cancer, PC-3, 48 h drug incubation, read-out: GI50): 2100 nM
GI50 (TK-10; Renal Cancer, TK-10, 48 h drug incubation, read-out: GI50): 2500 nM
GI50 (HOP-62; Non-Small Cell Lung Cancer, HOP-62, 48 h drug incubation, read-out: GI50): 2000 nM
GI50 (Breast Cancer cell lines; average over Breast Cancer panel): 2170 nM

CC1(C)CC(NC(=O)[C@H](Cc2ccc(OCc3c(Cl)cccc3Cl)cc2)NC(=O)c2ccc(OCCC[Si](C)(C)C)cc2)CC(C)(C)N1 [GH1501, N^α-{4-[3-(trimethylsilyl)propoxy]-benzoyl}-N-(2,2,6,6-tetramethylpiperidin-4-yl)-[O-(2,6-dichlorobenzyl)-L-tyrosinamide]]
GI50 (NCI-H23; Homo sapiens, NCI-H23, 48 h): 1650 nM
GI50 (SK-MEL-5; Homo sapiens, SK-MEL-5, 48 h): 1720 nM
GI50 ([1]; Homo sapiens): 834 nM
GI50 (HL-60(TB); Homo sapiens, HL-60, 48 h): 813 nM
GI50 (SW-620; Homo sapiens, SW-620, 48 h): 313 nM
GI50 (A549/ATCC; Homo sapiens, A549, 48 h): 407 nM
GI50 (OVCAR-5; Homo sapiens, OVCAR-5, 48 h): 1680 nM
GI50 (MCF-7; Homo sapiens, MCF7, 48 h): 335 nM
GI50 (NCI-H460; Homo sapiens, NCI-H460, 48 h): 253 nM
GI50 (Melanoma cell lines; Homo sapiens): 1180 nM
GI50 (NCI-H322M; Homo sapiens, 48 h): 1740 nM
GI50 ([2]; Homo sapiens): 1370 nM
GI50 (HCT-116; Homo sapiens, HCT-116, 48 h): 206 nM
GI50 (MDA-MB-468; Homo sapiens, MDA-MB-468, 48 h): 1700 nM
GI50 (CNS Cancer cell lines; Homo sapiens): 1190 nM
GI50 (SNB-19; Homo sapiens, SNB-19, 48 h): 1720 nM
GI50 (BT-549; Homo sapiens, BT-549, 48 h): 2010 nM
GI50 (CCRF-CEM; Homo sapiens, 48 h): 1200 nM
GI50 (SNB-75): 1340 nM
GI50 (HCC-2998; Homo sapiens, HCC 2998, 48 h): 1050 nM
GI50 (PC-3; Homo sapiens, PC-3, 48 h): 1320 nM
GI50 (TK-10; Homo sapiens, TK-10, 48 h): 1850 nM
GI50 (HOP-62; Homo sapiens, HOP-62, 48 h): 1860 nM
GI50 (Breast Cancer cell lines; Homo sapiens): 1460 nM

— US9828393B2, “Silylalkyloxyaryl compounds and methods for treating cancer” (THE REGENTS OF THE UNIVERSITY OF COLORADO, a body corporate, priority 2013, dated 2017)
